# According to the supplement of paper PMC10307832:
# Legend:
# Experiment in all cases: relative viability (nuclei count vs DMSO), 5 days (fraction); higher = more cells survive
# [1] = compound: C1=CC2=C(C=CC(=C2)C=C3C(=O)NC(=NCC4=CC=CS4)S3)N=C1 [RO-3306] + N=C(N)NC(=N)NCCc1ccccc1 [Phenformin] (partner 250 µM)
# Outline: (§1)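 Each reported value is a median over duplicate plates. It expresses relative viability: treated-well nuclei count divided by vehicle-well nuclei count. Lung cancer cell lines in 1536-well plates were dosed by pin tool a day after seeding, alone with one drug or with a fixed anchor-drug dose plus five library-drug doses (not always all listed) in √10 steps, and nuclei were counted after 5 days.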
# [2] = compound: O=S(=O)(c1ccccc1)N(CC(F)(F)F)c1ccc(C(O)(C(F)(F)F)C(F)(F)F)cc1 + N=C(N)NC(=N)NCCc1ccccc1 [Phenformin] (partner 250 µM)
# Outline: as §1
# [3] = compound: C1=CC2=C(C=CC(=C2)C=C3C(=O)NC(=NCC4=CC=CS4)S3)N=C1 [RO-3306] + CS(=O)(=O)CCNCc1ccc(-c2ccc3ncnc(Nc4ccc(OCc5cccc(F)c5)c(Cl)c4)c3c2)o1 [Lapatinib] (partner 2 µM)
# Outline: as §1
# [4] = compound: C1=CC2=C(C=CC(=C2)C=C3C(=O)NC(=NCC4=CC=CS4)S3)N=C1 [RO-3306] + O=C(CCCCCCC(=O)Nc1ccccc1)NO [Vorinostat] (partner 1 µM)
# Outline: as §1
Cell Line,relative viability ([1]; first compound 0.01 µM),relative viability ([1]; first compound 0.03162 µM),relative viability ([1]; first compound 0.1 µM),relative viability ([1]; first compound 0.3162 µM),relative viability ([1]; first compound 1 µM),relative viability ([2]; first compound 0.8 µM),relative viability ([2]; first compound 2.53 µM),relative viability ([2]; first compound 8 µM),relative viability ([3]; first compound 0.01 µM),relative viability ([3]; first compound 0.03162 µM),relative viability ([3]; first compound 0.1 µM),relative viability ([3]; first compound 0.3162 µM),relative viability ([3]; first compound 1 µM),relative viability ([4]; first compound 0.01 µM),relative viability ([4]; first compound 0.03162 µM),relative viability ([4]; first compound 0.1 µM),relative viability ([4]; first compound 0.3162 µM),relative viability ([4]; first compound 1 µM)
SK-MES-1,0.73,0.605,0.711,0.621,0.625,0.779,0.745,0.65,0.449,0.472,0.444,0.505,0.471,1.35,1.12,1.12,1.32,1.08
H3255,0.392,0.326,0.315,0.32,0.332,0.382,0.373,0.393,0.236,0.227,0.245,0.26,0.26,0.788,0.743,0.802,0.826,0.819
NCI-H2087,0.526,0.332,0.423,0.489,0.372,0.512,0.456,0.341,0.894,1.12,1.02,0.968,0.889,0.775,0.805,0.756,0.864,0.86
NCI-H1666,0.561,0.55,0.515,0.54,0.552,0.537,0.541,0.511,0.593,0.407,0.609,0.61,0.457,0.803,0.952,1.04,1.05,0.972
SK-LU-1,0.461,0.426,0.503,0.484,0.453,0.546,0.489,0.526,1.07,0.812,0.842,0.902,0.797,0.854,0.711,0.786,0.786,0.605
NCI-H727,0.535,,0.502,0.458,0.576,0.568,0.378,0.469,0.869,0.647,0.789,0.845,0.972,1.08,1.25,1.02,1.3,1.06
NCI-H1755,0.65,0.62,0.63,0.622,0.544,0.638,0.614,0.569,1.2,1.04,1.03,1.04,1.01,0.881,0.856,0.771,0.745,0.706
NCI-H1650,0.419,0.397,0.38,0.358,0.293,0.347,0.366,0.384,0.595,0.632,0.695,1.03,0.683,0.648,0.545,0.472,0.558,0.613
HARA,0.471,0.357,0.504,0.429,0.466,0.438,0.357,0.304,0.763,0.627,0.758,0.687,0.535,0.493,0.404,0.527,0.638,0.445
